According to patent US4232148A, “6-Deoxyneamines” (The Upjohn Company, priority 1979, dated 1980):
≈ marks a conversion by molar mass, not a printed value. Where two headings read alike, the source gives them in different places.

What was measured:
Assay type in all cases: cell-based
[1] = test system: B. cereus UC 3145; assay: standard disc plate assay, zone of inhibition; conditions: 12.5 mm paper discs
Source text: (§1) The compounds of formulas (V, VII, IX, XI, XIV, XVI, and XIX) are active as antibacterials and can be used in various environments to erradicate or control susceptible microorganisms. Tables I and II set forth the in vitro antibacterial test results for representative compounds of the present invention. The results were obtained with a standard disc plate assay using 12.5 mm paper discs.

[2] = test system: B. subtilis UC 564; assay: standard disc plate assay, zone of inhibition; conditions: 12.5 mm paper discs
Source text: as §1

[3] = test system: E. coli UC 51; assay: standard disc plate assay, zone of inhibition; conditions: 12.5 mm paper discs
Source text: as §1

[4] = test system: K. pneumoniae UC 57; assay: standard disc plate assay, zone of inhibition; conditions: 12.5 mm paper discs
Source text: as §1

[5] = test system: P. vulgaris UC 93; assay: standard disc plate assay, zone of inhibition; conditions: 12.5 mm paper discs
Source text: as §1

[6] = test system: Ps. aeruginosa UC 95; assay: standard disc plate assay, zone of inhibition; conditions: 12.5 mm paper discs
Source text: as §1

[7] = test system: S. aureus UC 80; assay: standard disc plate assay, zone of inhibition; conditions: 12.5 mm paper discs
Source text: as §1

[8] = test system: S. gallinarum UC 265; assay: standard disc plate assay, zone of inhibition; conditions: Salmonella enterica, read-out: Zones of Inhibition
Source text: as §1

[9] = test system: S. schottmeulleri UC 126; assay: standard disc plate assay, zone of inhibition; conditions: 12.5 mm paper discs
Source text: as §1

[10] = test system: D. pneumoniae UC 41; assay: standard microplate test in BHI Agar, MIC; conditions: Streptococcus pneumoniae, UC41, 37°, 20 hours, read-out: Minimal Inhibitory Concentration
Protocol: (§2) The compounds VII, XI, XVβ, XVα and XVI were tested in a standard microplate test in BHI (Brain Heart Infusion) Agar at a concentration of 1 mg./ml. and dilutions thereof at 37° incubation temperature. The end points are read at 20 hours. BHI Agar is supplied by Difco Laboratories, Detroit, Mich., U.S.A. and has the following compositions:
(§3) Calf brains, infusion from: 200 gm.
(§4) Beef heart, infusion from: 250 gm.
(§5) Bacto Proteose-peptone, Difco: 10 gm.
(§6) Bacto-Dextrose, Difco: 1 gm.
(§7) Disodium phosphate: 2.5 gm.

[11] = test system: E. coli UC 311; assay: standard microplate test in BHI Agar, MIC; conditions: Escherichia coli, UC311, 20 h, read-out: Minimal Inhibitory Concentration
Protocol: as §2, §3, §4, §5, §6, §7

[12] = test system: E. coli UC 45; assay: standard microplate test in BHI Agar, MIC; conditions: Escherichia coli, UC45, 37°, 20 hours, read-out: Minimum Inhibitory Concentration
Protocol: as §2, §3, §4, §5, §6, §7

[13] = test system: K. pneumoniae UC 58; assay: standard microplate test in BHI Agar, MIC; conditions: Klebsiella pneumoniae, UC58, 20 h
Protocol: as §2, §3, §4, §5, §6, §7

[14] = test system: P. mirabilis UC 6671; assay: standard microplate test in BHI Agar, MIC; conditions: Proteus mirabilis, UC6671, 37°, 20 hours
Protocol: as §2, §3, §4, §5, §6, §7

[15] = test system: P. morganii UC 3186; assay: standard microplate test in BHI Agar, MIC; conditions: Morganella morganii, UC3186, 20 h
Protocol: as §2, §3, §4, §5, §6, §7

[16] = test system: P. rettgeri UC 339; assay: standard microplate test in BHI Agar, MIC; conditions: Providencia rettgeri, UC339, 20 h
Protocol: as §2, §3, §4, §5, §6, §7

[17] = test system: P. vulgaris UC 93; assay: standard microplate test in BHI Agar, MIC; conditions: Proteus vulgaris, UC93, 37°, 20 hours
Protocol: as §2, §3, §4, §5, §6, §7

[18] = test system: Ps. aeruginosa UC 95; assay: standard microplate test in BHI Agar, MIC; conditions: Pseudomonas aeruginosa, UC95, 20 h
Protocol: as §2, §3, §4, §5, §6, §7

[19] = test system: S. aureus UC 76; assay: standard microplate test in BHI Agar, MIC; conditions: Staphylococcus aureus, UC76, 20 h
Protocol: as §2, §3, §4, §5, §6, §7

[20] = test system: S. faecalis UC 694; assay: standard microplate test in BHI Agar, MIC; conditions: Enterococcus faecalis, UC694, 20 h
Protocol: as §2, §3, §4, §5, §6, §7

[21] = test system: S. flexneri UC 143; assay: standard microplate test in BHI Agar, MIC; conditions: Shigella flexneri, UC143, 37°, 20 hours
Protocol: as §2, §3, §4, §5, §6, §7

[22] = test system: S. marcescens UC 131; assay: standard microplate test in BHI Agar, MIC; conditions: Serratia marcescens, UC131, 37°, 20 hours
Protocol: as §2, §3, §4, §5, §6, §7

[23] = test system: S. pneumoniae I UC 41; assay: standard microplate test in BHI Agar, MIC; conditions: Streptococcus pneumoniae, UC41, 37°, 20 hours, read-out: Minimum Inhibitory Concentration
Protocol: as §2, §3, §4, §5, §6, §7

[24] = test system: S. pyogenes UC 152; assay: standard microplate test in BHI Agar, MIC; conditions: Streptococcus pyogenes, UC152, 20 h
Protocol: as §2, §3, §4, §5, §6, §7

[25] = test system: S. schottmuelleri UC 126; assay: standard microplate test in BHI Agar, MIC; conditions: 37°, 20 hours
Protocol: as §2, §3, §4, §5, §6, §7

[26] = test system: S. typhi UC 215; assay: standard microplate test in BHI Agar, MIC; conditions: Salmonella enterica, BHI Agar, 37°, 20 hours
Protocol: as §2, §3, §4, §5, §6, §7

[27] = read-out: Minimal Inhibitory Concentration
[28] = read-out: Minimum Inhibitory Concentration

With `NC[C@H]1O[C@H](O[C@H]2[C@H](O)[C@@H](O)[C@H](N)C[C@@H]2N)[C@H](N)[C@@H](O)[C@@H]1O` [Neamine] the “Zones of Inhibition” value ([1]; 1 mg/ml) was 23 mm, the zone of inhibition at 100 µg/mL ([1]; Bacillus cereus, UC3145, read-out: Zones of Inhibition, 0.1 mg/ml) was 15 mm and the zone of inhibition at 1000 µg/mL ([1]; Bacillus cereus, UC3145, read-out: Zones of Inhibition, 1 mg/ml) was 24 mm. The “Zones of Inhibition” value ([2]; 0.1 mg/ml) was 28 mm, the “Zones of Inhibition” value ([2]; 1 mg/ml) was 37 mm and the zone of inhibition at 100 µg/mL ([2]; Bacillus subtilis, UC564, read-out: Zones of Inhibition, 0.1 mg/ml) was 30 mm. The zone of inhibition at 1000 µg/mL ([2]; Bacillus subtilis, UC564, read-out: Zones of Inhibition, 1 mg/ml) was 39 mm, the “Zones of Inhibition” value ([3]; 0.1 mg/ml) was 18 mm and the “Zones of Inhibition” value ([3]; 1 mg/ml) was 25 mm. The zone of inhibition at 100 µg/mL ([3]; Escherichia coli, UC51, read-out: Zones of Inhibition, 0.1 mg/ml) was 19 mm, the zone of inhibition at 1000 µg/mL ([3]; Escherichia coli, UC51, read-out: Zones of Inhibition, 1 mg/ml) was 27 mm and the “Zones of Inhibition” value ([4]; 0.1 mg/ml) was 26 mm. The “Zones of Inhibition” value ([4]; 1 mg/ml) was 32 mm, the zone of inhibition at 100 µg/mL ([4]; Klebsiella pneumoniae, UC57, read-out: Zones of Inhibition, 0.1 mg/ml) was 27 mm and the zone of inhibition at 1000 µg/mL ([4]; Klebsiella pneumoniae, UC57, read-out: Zones of Inhibition, 1 mg/ml) was 34 mm. For the same compound, the “Zones of Inhibition” value ([5]; 0.1 mg/ml) was 15 mm, the “Zones of Inhibition” value ([5]; 1 mg/ml) was 28 mm and the zone of inhibition at 100 µg/mL ([5]; Proteus vulgaris, UC93, read-out: Zones of Inhibition, 0.1 mg/ml) was 18 mm. The zone of inhibition at 1000 µg/mL ([5]; Proteus vulgaris, UC93, read-out: Zones of Inhibition, 1 mg/ml) was 27 mm, the “Zones of Inhibition” value ([6]; 1 mg/ml) was 18 mm and the zone of inhibition at 1000 µg/mL ([6]; Pseudomonas aeruginosa, UC95, read-out: Zones of Inhibition, 1 mg/ml) was 17 mm. The “Zones of Inhibition” value ([7]; 0.1 mg/ml) was 18 mm, the “Zones of Inhibition” value ([7]; 1 mg/ml) was 26 mm and the zone of inhibition at 100 µg/mL ([7]; Staphylococcus aureus, UC80, read-out: Zones of Inhibition, 0.1 mg/ml) was 20 mm. It also gave a zone of inhibition at 1000 µg/mL ([7]; Staphylococcus aureus, UC80, read-out: Zones of Inhibition, 1 mg/ml) of 29 mm, a zone of inhibition at 100 µg/mL [8] of 19 mm and a zone of inhibition at 1000 µg/mL [8] of 29 mm. The “Zones of Inhibition” value ([9]; 0.1 mg/ml) was 15 mm, the zone of inhibition at 100 µg/mL ([9]; 0.1 mg/ml, read-out: Zones of Inhibition) was 16 mm and the “Zones of Inhibition” value ([9]; 1 mg/ml) was 23 mm. For the same compound, the zone of inhibition at 1000 µg/mL ([9]; 1 mg/ml, read-out: Zones of Inhibition) was 24 mm, the MIC [10] was 62.5 µg/mL (≈ 194 µM) and the MIC [11] was 125 µg/mL (≈ 388 µM). For the same compound, the MIC [12] was 62.5 µg/mL (≈ 194 µM), the MIC [13, 27] was 7.8 µg/mL (≈ 24.2 µM) and the MIC [13, 28] was 15.6 µg/mL (≈ 48.4 µM). The MIC [14, 27] was 250 µg/mL (≈ 776 µM), the MIC [14, 28] was 62.5 µg/mL (≈ 194 µM) and the MIC [15, 27] was 31.2 µg/mL (≈ 96.8 µM). For the same compound, the MIC [15, 28] was 62.5 µg/mL (≈ 194 µM), the MIC [16, 27] was > 500 µg/mL and the MIC [16, 28] was 250 µg/mL (≈ 776 µM). For the same compound, the MIC [17, 27] was 62.5 µg/mL (≈ 194 µM), the MIC [17, 28] was 62.5 µg/mL (≈ 194 µM) and the MIC [18, 27] was > 500 µg/mL. For the same compound, the MIC [18, 28] was > 500 µg/mL, the MIC [19, 27] was 7.8 µg/mL (≈ 24.2 µM) and the MIC [19, 28] was 3.9 µg/mL (≈ 12.1 µM). For the same compound, the MIC [20, 27] was > 500 µg/mL, the MIC [20, 28] was > 500 µg/mL and the MIC [21, 27] was 125 µg/mL (≈ 388 µM). It also gave an MIC [21, 28] of 62.5 µg/mL (≈ 194 µM), an MIC [22, 27] of 250 µg/mL (≈ 776 µM) and an MIC [22, 28] of 250 µg/mL (≈ 776 µM). For the same compound, the MIC [23] was 62.5 µg/mL (≈ 194 µM), the MIC [24, 27] was 7.8 µg/mL (≈ 24.2 µM) and the MIC [24, 28] was 7.8 µg/mL (≈ 24.2 µM). The MIC [25, 27] was 15.6 µg/mL (≈ 48.4 µM), the MIC [25, 28] was 31.2 µg/mL (≈ 96.8 µM) and the MIC [26, 27] was 31.2 µg/mL (≈ 96.8 µM). The MIC [26, 28] was 15.6 µg/mL (≈ 48.4 µM).
